Measurements as given in PMC7926352, “Synthesis, Characterization and In Vitro Evaluation of Novel 5-Ene-thiazolo[3,2-b][1,2,4]triazole-6(5H)-ones as Possible Anticancer Agents” (Molecules, 2021).

Assays:
[1] = system: Ovarian Cancer cell lines
IGROV1 = format: cell-based, human; settings: IGROV1, Ovarian Cancer
[2] = system: panel of approximately sixty human tumor cell lines; assay: NCI-60 human tumor cell lines screen (SRB), full panel; format: cell-based
CNS Cancer cell lines = system: CNS Cancer cell lines; set-up: LC50, values range inside panel: unit not given beside the values
Leukemia cell lines = system: Leukemia cell lines; set-up: LC50, values range inside panel: unit not given beside the values
[3] = system: Prostate Cancer cell lines; set-up: LC50, values range inside panel: unit not given beside the values

## Ethyl(Z)-4-(3-(4-chloro-2-((6-oxothiazolo[3,2-b][1,2,4]triazol-5(6H)-ylidene)methyl)phenyl)propanamido)benzoate [Compound 2i]
SR
  CC50: > 100 µM
Renal Cancer cell lines
  CC50: 55 µM
OVCAR-3
  CC50: 55 µM
ACHN
  CC50: 53.7 µM
HOP-92
  CC50: 83.2 µM
HCT-15
  CC50: 55 µM
RPMI-8226
  CC50: 95.5 µM
[1]
  CC50: 68.7 µM
U251
  CC50: 43.6 µM
MOLT-4
  CC50: > 100 µM
NCI/ADR-RES
  CC50: > 100 µM
RXF 393
  CC50: 58.9 µM
BT-549
  CC50: 60.2 µM
IGROV1
  GI50: 6.6 µM
  TGI: 20.89 µM
DU-145
  CC50: 36.3 µM
MALME-3M
  CC50: 53.7 µM
[2]
  CC50: 63.1 µM
SK-OV-3
  CC50: 61.6 µM
HCT-116
  CC50: 55 µM
SK-MEL-28
  CC50: 49 µM
A498
  CC50: 56.2 µM
CCRF-CEM
  CC50: > 100 µM
786-0
  CC50: 51.3 µM
CAKI-1
  CC50: 55 µM
SK-MEL-5
  CC50: 46.8 µM
CNS Cancer cell lines
  CC50: 66.2 µM
  LC50, values range inside panel: 43.65– >100
MCF7
  CC50: 50.1 µM
HS 578T
  CC50: 60.2 µM
Leukemia cell lines
  CC50: 99.2 µM
  LC50, values range inside panel: 95.49– >100
SNB-75
  CC50: > 100 µM
OVCAR-5
  CC50: 58.9 µM
SW-620
  CC50: 46.8 µM
[3]
  CC50: 68.2 µM
  LC50, values range inside panel: 36.30– >100
EKVX
  CC50: 50.1 µM
SF-539
  CC50: 50.1 µM
UACC-257
  CC50: 63.1 µM
SK-MEL-2
  CC50: 77.6 µM
LOX IMVI
  CC50: 42.6 µM
Melanoma cell lines
  CC50: 42.6 to 77.6 µM
HOP-62
  CC50: 53.7 µM
MDA-MB-435
  CC50: > 100 µM
SF-295
  CC50: 51.3 µM
OVCAR-4
  CC50: > 100 µM
OVCAR-8
  CC50: 85.1 µM
HT29
  CC50: 49 µM
SN12C
  CC50: 58.9 µM
Breast Cancer cell lines
  CC50: 73.2 µM
NCI-H460
  CC50: 56.2 µM
HCC-2998
  CC50: 66.1 µM
PC-3
  CC50: > 100 µM
MDA-MB-231/ATCC
  CC50: > 100 µM
NCI-H522
  CC50: 72.4 µM
UACC-62
  CC50: 51.3 µM
SF-268
  CC50: > 100 µM
K-562
  CC50: > 100 µM
UO-31
  CC50: 55 µM
TK-10
  CC50: 51.3 µM
